Measured values published in the NIST ThermoML archive (doi:10.1016/j.jct.2017.09.022).

Conditions: 101.33 kPa, Crystal, Small (less than 1 g) adiabatic calorimetry

C[C@@H](O)[C@H](N)C(=O)O [L-threonine]
Conditions	molar entropy [J/K/mol]
5 K	0.02162
10 K	0.1746
15 K	0.6735
20 K	1.713
25 K	3.326
30 K	5.488
35 K	8.065
40 K	10.89
45 K	13.89
50 K	17.13
60 K	23.7
70 K	30.6
80 K	37.33
90 K	43.98
100 K	50.55
110 K	57.04
120 K	63.44
130 K	69.68
140 K	75.91
150 K	82.06
160 K	88.05
170 K	93.95
180 K	99.86
190 K	105.59
200 K	111.33
210 K	116.9
220 K	122.47
230 K	128.04
240 K	133.45
250 K	138.85
260 K	144.26
270 K	149.58
280 K	154.82
290 K	160.14
298.15 K	164.38
300 K	165.29
310 K	170.53
320 K	175.6
330 K	180.67
340 K	185.75
350 K	190.73
360 K	195.72
370 K	200.71
